Assay results reported in paper PMC5321741, “Arylmethylamino steroids as antiparasitic agents” (Nature Communications, 2017).
Where two headings read alike, the source gives them in different places.

Legend:
[1] = plasma stability; assay type: in vitro ADME; conditions: for remaining at 3 h: plasma, read-out: Plasma Stability % remaining after 3 h
Description: Pharmacokinetic data were obtained for compound 1o at the Sanford-Burnham Medical Research Institute according to established procedures. Compound solubility in an aqueous solution was measured using an automated kinetic solubility method. The concentration of the compound in a saturated pH-buffered aqueous solution was determined via UV absorbance (250–498 nm) and compared with the spectra of a precipitation-free reference solution. The plasma stability of the compound was determined at a single concentration using species-specific plasma. The percentage of parent compound remaining after 3 h was determined via LC-MS/MS. The percentage of compound 1o bound to plasma proteins was determined through rapid equilibrium dialysis and quantified via LC-MS/MS. Metabolic stability of the compound was determined at a single concentration using species-specific liver microsomes that contained cytochrome P450s, flavin-monooxygenases, carboxyl-esterases, epoxide hydrolases, and other drug-metabolizing enzymes. The quantification was carried out via LC-MS/MS. Membrane permeability of compound 1o was measured using an in vitro model for the passive transport from the gastrointestinal tract into the blood system. A double-sink parallel artificial membrane permeability assay PAMPA, in a 96-well format was employed.

[2] = tested on: hGrx1-roGFP2 in P. falciparum 3D7; test: cytosolic glutathione redox sensor in parasites; assay type: cell-based, Plasmodium falciparum; conditions: for oxidizing effect, change of 405/488 nm fluorescence ratio: 4 h
Description: To further study the mechanism of action of the steroid compounds and evaluate the potential involvement of redox stress, compound 1o was tested in cell culture on the chloroquine-sensitive P. falciparum 3D7 strain expressing the cytosolic glutathione redox sensor hGrx1-roGFP2 (Supplementary Note 2). […]
signals at 405/475 nm were calculated and plotted against time and/or concentration of compound 1o or redox active compounds. Data from three independent experiments were […]
100 µM for 4 h and 24 h incubations. Transfection of the Pf3D7 strain with the redox sensor was carried out, and the parasites were cultured as described under constant drug pressure with 5 nM WR99210 (Jacobus Pharmaceuticals, New Jersey, USA).45,46 P. falciparum trophozoites were enriched via magnet separation.47 Parasitemia was counted by using Giemsa-stained blood smears. The IC50 of compound 1o on P. falciparum 3D7 asexual blood stages was verified to be about 5 nM in an additional 72 h [3H] incorporation assay45 directly before the experiment. The effect of compound 1o on P. falciparum was investigated in 4 h and 24 h incubations. For 4 h experiments, trophozoite stage parasites (26-30 h post invasion) of 3D7[hGrx1-roGFP2] (6-8% parasitemia) were magnetically enriched (Miltenyi Biotec, Germany), counted by using the improved Neubauer hemocytometer (Brand GmbH, Germany), and returned to cell culture (at 0.5 x 10^6 trophozoites/µl) for at least 1 h to recover.
1.0 x 10^6 cells in 100 µl cell culture medium were placed into LoBind tubes (Eppendorf) for 4 h incubation experiments. The parasites were treated with compound 1o at 50 x, and 100 x IC and with mefloquine (MQ) as a standard antimalarial drug at 1 µM (IC = 8 nM)45 for 4 h […]
for 15 min at 37 °C. For 24 h experiments, a 5 ml culture (6-8% parasitemia) of ring stage parasites (6-10 h post invasion) was treated with compound 1o at 4 x, 10 x, 20 x IC50 and with 100 nM MQ. Prior to enrichment, cysteines were blocked with 2 mM NEM. For 4 h and 24 h experiments, cells were washed after incubation with pre-warmed Ringer’s solution […]
Hepes, 1 mM NaH2PO4, pH 7.4) and were seeded onto poly-L-lysine-coated µ-slides VI (Ibidi, Martinsried, Germany). A Leica confocal system TCS SP5 inverted microscope equipped with the objective HCX PL APO 63.0x1.30 GLYC 37 °C UV connected to a 37 °C temperature chamber was used. The argon laser power was set to 20%; scanning was performed at 400 Hz frequency and at a 512 × 512 pixel resolution. The smart gain and […]
smart offset were 950 V and -0.9%, respectively. With a sequential scan, we excited the sensor at 405 nm and at 488 nm and detected emissions at 500-550 nm. Laser intensity for both lines was adjusted to match the full dynamic range of the probe to the dynamic range of the detector (405 nm: 12%, 488 nm: 4%). Autofluorescence images were simultaneously taken at ex 405 nm / em 430-450 nm and individually defined together with the background for every image, but no fluorescence signal could be detected. All experiments included non- […]
and 10 mM DTT (2 min incubation), respectively, prior to blocking with NEM. Only parasites showing fluorescent signals at both 405 and 488 nm excitation and an intact host cell were chosen for analysis. Each experiment was carried out three times. At least 10 parasites were analyzed, resulting in at least 30 experimental values per incubation. The Leica LAS AF Lite software for fluorescence analysis was used. The 405/488 nm ratio was calculated. The obtained ratio values were normalized to the control ratio value, which was set to 100. The graphs were plotted using the GraphPad Prism 5 software (San Diego, CA, USA). One way-ANOVA test with 95% confidence intervals with the Dunnett’s Multiple Comparison Test was applied for statistical analysis of significance (*, p < 0.05; **, p < 0.01; ***, p < 0.001). […]
with 1 µM MQ. 24 h incubation (Supplementary Figure 8 panel B) with compound 1o resulted in a higher increase of the fluorescence ratio in a concentration-dependent manner. […]

COc1ccc2c(c1)CCC1C2CC[C@@]2(C)C1CC[C@H]2NCc1cc2ccccc2cc1O (stereo partly drawn) [1o]
Plasma Stability % remaining after 3 h ([1]; Human): 62% | Plasma Stability % remaining after 3 h ([1]; Mouse): 58% | remaining at 3 h ([1]; human): 62.5% | remaining at 3 h ([1]; mouse): 58.9% | change of 405/488 nm fluorescence ratio ([2]; 20 nM (4 x IC50), 24 h): 1.8 fold | change of 405/488 nm fluorescence ratio ([2]; 100 nM, 24 h): 2.4 fold | oxidizing effect, change of 405/488 nm fluorescence ratio ([2]; 250 nM (50 x IC50)): approximately 1.5 fold | oxidizing effect, change of 405/488 nm fluorescence ratio ([2]; 500 nM (100 x IC50)): approximately 1.5 fold | redox ratio of the probe ([2]; 20, 50 and 100 nM, 24 h, not significant): dose-dependent increase of the redox ratio of the probe
